Publication PMC10205807, “Cross-species comparison in nonclinical pharmacokinetics of lenvatinib by a simple HPLC with ultraviolet detection” (Scientific Reports, 2023)

Tests used:
[1] = Stability of lenvatinib in dog plasma and processed samples; assay type: physicochemical, dogs; details: dog plasma; for Freeze/thaw stability, mean percentage bias from the theoretical values: 3 cycles
Description: (§1) Calibration samples and QC samples for the reproducibility assessment were prepared by spiking 0.05 mL of the working standard solutions to blank plasma (0.05 mL), and QC samples for the stability assessment were prepared by fortifying 0.05 mL of the solution to 1.5 mL of bank plasma. Lenvatinib concentrations in plasma were 0.005, 0.01, 0.03, 0.1, 0.3, 1, 3, 10, 30, and 100 μg/mL for the calibration samples, and were 0.005, 0.01, 1, and 100 μg/mL for the QC samples for reproducibility assessment. Lenvatinib concentrations of QC samples for the stability assessment were 0.01, 1, and 80 μg/mL.
The developed method for the determination of lenvatinib concentrations in plasma was validated and the following validation parameters including linearity, selectivity, intra- and inter-batch reproducibility, extraction recovery, and stability were evaluated in accordance with the bioanalytical guidelines by United States Food and Drug Administration (US-FDA)[7]. […] In the linearity assessment, accuracy of each calibration sample was determined to ensure that relative error (RE) at each concentration was within ± 15% (within ± 20% at the LLOQ). […] Intra-batch accuracy and precision were evaluated using QC samples at the four concentrations, LLOQ, low QC (LQC), mid QC (MQC), and ULOQ. […] Inter-batch accuracy and precision were evaluated by testing a single sample at each concentration across five batches (n = 5 in total). […] Extraction recoveries of lenvatinib and the IS from plasma samples of the four species were evaluated. The recoveries of lenvatinib at the low, mid, and high QC levels (triplicates per concentration), and that of the IS (0.5 μg/mL) were determined. […] Stability of lenvatinib in plasma and processed samples was assessed at the low and high QC levels. Lenvatinib concentrations in samples after storage were compared to the theoretical concentrations and RE values were calculated. […] Freeze–thaw stability in plasma was evaluated up to three freeze–thaw cycles and frozen stability in plasma was evaluated at − 15 °C or below for 4 weeks (mice, rats, and dogs) or 6 weeks (monkeys). […]

plasma protein [2] = assay: in vitro plasma protein binding, rats; assay type: in vitro ADME
[3] = Stability of lenvatinib in monkey plasma and processed samples; assay type: physicochemical, monkeys; details: monkey plasma; for Freeze/thaw stability, mean percentage bias from the theoretical values: 3 cycles; for Frozen stability, mean percentage bias from the theoretical values: below − 15 °C, 6 weeks
Description: as §1
The developed method for the determination of lenvatinib concentrations in plasma was validated and the following validation parameters including linearity, selectivity, intra- and inter-batch reproducibility, extraction recovery, and stability were evaluated in accordance with the bioanalytical guidelines by United States Food and Drug Administration (US-FDA)[7]. The peak height ratios of lenvatinib to the IS of calibration samples were plotted against the corresponding nominal concentrations of lenvatinib. The calibration curve was prepared by the least square method with 1/(concentration)^2 as the weighting factor. In the linearity assessment, accuracy of each calibration sample was determined to ensure that relative error (RE) at each concentration was within ± 15% (within ± 20% at the LLOQ). In the selectivity assessment, peak heights at the retention times of lenvatinib and the IS should be within 20% and 5% of those of the LLOQ for lenvatinib and the IS, respectively in blank plasma from six individuals. Intra-batch accuracy and precision were evaluated using QC samples at the four concentrations, LLOQ, low QC (LQC), mid QC (MQC), and ULOQ. Six replicates per concentration were assayed to calculate RE and relative standard deviation (RSD). Inter-batch accuracy and precision were evaluated by testing a single sample at each concentration across five batches (n = 5 in total). The acceptance criteria for RE and RSD in the intra- and inter-batch reproducibility should be within ± 15% and 15%, respectively, except at the LLOQ that was within ± 20% and 20%, respectively, was allowed. Extraction recoveries of lenvatinib and the IS from plasma samples of the four species were evaluated. The recoveries of lenvatinib at the low, mid, and high QC levels (triplicates per concentration), and that of the IS (0.5 μg/mL) were determined. Peak heights of lenvatinib after extraction from plasma samples were compared to those of the neat solution with the same concentrations. Stability of lenvatinib in plasma and processed samples was assessed at the low and high QC levels. Lenvatinib concentrations in samples after storage were compared to the theoretical concentrations and RE values were calculated. The RE values should be within ± 15% when considered stable. Freeze–thaw stability in plasma was evaluated up to three freeze–thaw cycles and frozen stability in plasma was evaluated at − 15 °C or below for 4 weeks (mice, rats, and dogs) or 6 weeks (monkeys). Stability in processed samples was assessed at 4 °C for 7 days. Stability of lenvatinib in the standard solutions was evaluated for the stock (100 μg/mL) and the working solution (5 ng/mL). The stability of the IS solution (0.5 μg/mL) was also assessed. The standard solutions were stored at 5 °C for 4 weeks or 6 h at ambient temperature. The peak height of the stored solutions was compared to that of the freshly prepared solution. […]

[4] = Stability of lenvatinib in rat plasma and processed samples; assay type: physicochemical, rats; details: for Processed sample stability, mean percentage bias from the theoretical values: processed rat plasma samples, 4 °C, 7 days
Description: as §1
The developed method for the determination of lenvatinib concentrations in plasma was validated and the following validation parameters including linearity, selectivity, intra- and inter-batch reproducibility, extraction recovery, and stability were evaluated in accordance with the bioanalytical guidelines by United States Food and Drug Administration (US-FDA)[7]. The peak height ratios of lenvatinib to the IS of calibration samples were plotted against the corresponding nominal concentrations of lenvatinib. The calibration curve was prepared by the least square method with 1/(concentration)^2 as the weighting factor. In the linearity assessment, accuracy of each calibration sample was determined to ensure that relative error (RE) at each concentration was within ± 15% (within ± 20% at the LLOQ). […] Intra-batch accuracy and precision were evaluated using QC samples at the four concentrations, LLOQ, low QC (LQC), mid QC (MQC), and ULOQ. […] Inter-batch accuracy and precision were evaluated by testing a single sample at each concentration across five batches (n = 5 in total). […] Extraction recoveries of lenvatinib and the IS from plasma samples of the four species were evaluated. The recoveries of lenvatinib at the low, mid, and high QC levels (triplicates per concentration), and that of the IS (0.5 μg/mL) were determined. […] Stability of lenvatinib in plasma and processed samples was assessed at the low and high QC levels. Lenvatinib concentrations in samples after storage were compared to the theoretical concentrations and RE values were calculated. […] Freeze–thaw stability in plasma was evaluated up to three freeze–thaw cycles and frozen stability in plasma was evaluated at − 15 °C or below for 4 weeks (mice, rats, and dogs) or 6 weeks (monkeys). Stability in processed samples was assessed at 4 °C for 7 days. Stability of lenvatinib in the standard solutions was evaluated for the stock (100 μg/mL) and the working solution (5 ng/mL). The stability of the IS solution (0.5 μg/mL) was also assessed. […]

[5] = Allometric PK scaling, prediction of CLint in humans; details: cross-species allometric scaling, BW 70 kg
Description: One of the typical approaches for predicting human PK from animal PK is empirical allometric scaling. As the CLtot of lenvatinib was relatively low and Vdss of lenvatinib was low to medium, thus it is theoretically preferable to correct by fp for both parameters. The CLtot divided by fp (CLtot/fp) or Vdss divided by fp (Vdss/fp) were plotted against body weight (BW) by log–log scale, and a linear regression was performed to estimate a slope and intercept for linear regression. The BW used in the calculation was 0.02, 0.2, 10, 5, and 70 kg for mice, rats, dogs, monkeys, and humans, respectively. CLtot and Vdss of lenvatinib in humans were predicted by using the regression line and the BW of humans. As no PK data of lenvatinib are available for CLtot and Vdss, which can be estimated only from intravenous administration PK study in humans, it is not possible to assess predictability of the allometric scaling for these two parameters of lenvatinib in humans. However, it is possible to predict exposure of lenvatinib after oral administration (AUCoral) in humans from the allometry scaling of hepatic intrinsic clearance (CLint). […]

plasma protein [6] = assay: in vitro plasma protein binding, mice; assay type: in vitro ADME; details: mouse
plasma protein [7] = assay: in vitro plasma protein binding, monkeys; assay type: in vitro ADME

## COc1cc2nccc(Oc3ccc(NC(=O)NC4CC4)c(Cl)c3)c2cc1C(N)=O [lenvatinib, Lenvatinib]
[1]; HQC 80 μg/mL
  Freeze/thaw stability, mean percentage bias from the theoretical values: 0.6%
[1]; MQC 1 μg/mL
  Freeze/thaw stability, mean percentage bias from the theoretical values: 1.5%
[1]; below − 15 °C, 4 weeks, HQC 80 μg/mL
  Frozen stability, mean percentage bias from the theoretical values: 3.1%
Plasma protein [2]; rat plasma, 0.3 μg/mL
  fraction unbound at 0.3 μg/mL: 0.019
Plasma protein [2]; rat, plasma, rats, 0.3–30 μg/mL, read-out: average fp (unbound fraction in plasma)
  fraction unbound: 0.02
[3]; HQC 80 μg/mL
  Freeze/thaw stability, mean percentage bias from the theoretical values: 1.6%
  Frozen stability, mean percentage bias from the theoretical values: 7.0%
[3]; MQC 1 μg/mL
  Freeze/thaw stability, mean percentage bias from the theoretical values: 2.3%
  Frozen stability, mean percentage bias from the theoretical values: 4.2%
[3]; LQC 0.01 μg/mL
  Frozen stability, mean percentage bias from the theoretical values: 2.0%
[4]; HQC 80 μg/mL
  Processed sample stability, mean percentage bias from the theoretical values: 0.3%
[4]; MQC 1 μg/mL
  Processed sample stability, mean percentage bias from the theoretical values: 0.2%
[4]; rat plasma, 3 cycles, MQC 1 μg/mL
  Freeze/thaw stability, mean percentage bias from the theoretical values: 3.6%
[4]; rat plasma, below − 15 °C, 4 weeks, LQC 0.01 μg/mL
  Frozen stability, mean percentage bias from the theoretical values: 1.0%
[5]
  CLint predicted in humans: 4.704 L/h/kg
Plasma protein [6]; plasma, mice, 0.3–30 μg/mL, read-out: average fp (unbound fraction in plasma)
  fraction unbound: 0.033
Plasma protein [6]; mice plasma, 0.3 μg/mL
  fraction unbound at 0.3 μg/mL: 0.031
Plasma protein [7]; monkey plasma, 0.3 μg/mL
  fraction unbound at 0.3 μg/mL: 0.039
Plasma protein [7]; monkey, plasma, monkeys, 0.3–30 μg/mL, read-out: average fp (unbound fraction in plasma)
  fraction unbound: 0.0394
